Measurements from publication PMC5598150 (Toxicology Reports, 2015).

Experiments:
[1] = test system: human neuroblastoma SK-N-SH cells; test: MTT assay of cell viability in SK-N-SH neuroblastoma cells; format: cell-based
primary cultured cells = conditions: cited from earlier work
rat = conditions: ref Hazardous Substances Data Bank (HSDB); cited from earlier work
[2] = test system: primary rat cortical neurons; test: Live and Dead cell staining of primary neuronal cultures; format: cell-based; conditions: 24 h
[3] = partition coefficient between octanol and water; cited from earlier work

| Structure (SMILES) | IC50 ([1]; Homo sapiens, SK-N-SH, 24 h) | Concentration causing the death of all primary cultured cells (primary cultured cells) | LD50 rat (intraperitoneal) (rat) | Survival of primary cultured neurons ([2]; 1 mM) | log Pow [3] | Survival of primary cultured neurons ([2]; 0.5 mM) | IC50 ([1]; SK-N-SH cells, MTT assay, 24 h exposure) |
| --- | --- | --- | --- | --- | --- | --- | --- |
| Cc1ccccc1 [Toluene, reference compound] | 850 µM | 2000 µM | 1332 mg/kg |  |  |  |  |
| C=CC(C)(O)CCC=C(C)C (centres unmarked) [Linalool] | 1330 µM |  | 307 mg/kg | almost all of the cells in culture dishes died |  |  |  |
| CCCCCCCC=O [n-Octanal] | 37.2 µM |  |  |  | 2.78 | almost all of the primary cultured neurons died |  |
| CC/C=C\CCO [cis-3-Hexen-1-ol] | 2300 µM |  |  | almost all of the cells in culture dishes died |  |  |  |
| CCCCCCCCC=O [Nonanal] | 8.31 µM |  |  |  | 3.27 | almost all of the primary cultured neurons died |  |
| CCCCC(CC)CO (centres unmarked) [2-Ethyl-1-hexanol] | 15.1 µM |  | 500 mg/kg |  | 2.73 | almost all of the primary cultured neurons died |  |
| OCCc1ccccc1 [Phenethyl alcohol] | 2390 µM |  |  | almost all of the cells in culture dishes survived |  |  |  |
| CCCO [n-Propyl alcohol] |  |  | 164 mg/kg | almost all of the cells in culture dishes survived |  |  | > 5000 µM |
